Broadly, the IC50 is the concentration that inhibits the measured activity by half. Higher therefore signals lower potency. One may read the Km as the substrate concentration at which the rate is half of its maximum.

Where two headings read alike, the source gives them in different places.

What all share (type): biochemical
Test [1] addresses T1, MAO-B (Homo sapiens, UniProt P27338).
T1 construct: gene MAOB; FAD enzyme; PDB 2V5Z was only the docking model
T1 sequence (P27338 2-520): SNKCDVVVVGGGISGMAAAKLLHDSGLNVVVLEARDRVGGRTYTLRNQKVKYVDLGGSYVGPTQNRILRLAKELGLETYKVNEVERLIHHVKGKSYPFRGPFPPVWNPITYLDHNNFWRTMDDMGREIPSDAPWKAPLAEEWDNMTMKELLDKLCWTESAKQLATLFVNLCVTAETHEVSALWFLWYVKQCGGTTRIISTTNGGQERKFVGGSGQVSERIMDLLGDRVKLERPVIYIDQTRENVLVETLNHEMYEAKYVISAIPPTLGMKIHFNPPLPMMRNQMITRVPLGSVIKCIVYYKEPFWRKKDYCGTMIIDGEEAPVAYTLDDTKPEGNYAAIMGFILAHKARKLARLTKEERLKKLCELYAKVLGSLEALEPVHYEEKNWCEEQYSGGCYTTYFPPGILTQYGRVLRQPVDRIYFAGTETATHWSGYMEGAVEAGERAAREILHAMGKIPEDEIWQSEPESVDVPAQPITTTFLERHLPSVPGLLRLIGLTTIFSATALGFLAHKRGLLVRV
Nature of the test: UV/Vis, benzaldehyde formation at […] nm.

The target in test [2] is T1, MAO-B. Nature of the test: UV/Vis, benzaldehyde formation at […] nm. The settings on record: 1.5 mM benzylamine, 30 μM MAO-B [sic], 50 mM HEPES pH 7.5, 0.5% Triton X-100, 25 °C; IC50 relative to fitted Imax (Hill-type fit); unreliable.
For test [3], the target named is T2, MAO-A (Homo sapiens, UniProt P21397).
T2 construct: gene MAOA; FAD enzyme; PDB 2Z5X was only the docking model
T2 sequence (P21397 1-527): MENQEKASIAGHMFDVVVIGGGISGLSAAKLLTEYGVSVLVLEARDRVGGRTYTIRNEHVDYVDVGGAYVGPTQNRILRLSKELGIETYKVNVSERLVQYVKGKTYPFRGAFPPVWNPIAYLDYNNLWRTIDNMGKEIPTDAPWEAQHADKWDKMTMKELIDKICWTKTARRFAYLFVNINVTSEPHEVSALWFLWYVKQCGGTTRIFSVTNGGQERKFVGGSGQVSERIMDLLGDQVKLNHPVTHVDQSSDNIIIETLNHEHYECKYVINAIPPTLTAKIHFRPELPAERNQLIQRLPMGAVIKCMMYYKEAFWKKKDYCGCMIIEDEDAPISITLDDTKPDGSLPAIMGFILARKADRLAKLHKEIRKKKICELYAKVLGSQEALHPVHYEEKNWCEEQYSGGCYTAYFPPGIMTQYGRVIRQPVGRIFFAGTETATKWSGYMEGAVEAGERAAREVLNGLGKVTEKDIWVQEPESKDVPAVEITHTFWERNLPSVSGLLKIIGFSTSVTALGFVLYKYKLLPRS
Nature of the test: UV/Vis, 4-hydroxyquinoline formation at […] nm.

The target in test [4] is T2, MAO-A. The experiment in a line: steady-state UV/Vis, 4-hydroxyquinoline at […] nm. The settings on record: 20 μM MAO-A as printed, 50 mM HEPES pH 7.5, 0.5% Triton X-100, 25 °C.

`Cn1ccc2ccccc21` [compound 10, 1‐methyl‐1H‐Indole] came in with an IC50 against MAO-B [1] of 500 ± 20 µM.
The same measure, in the same setting: then `CCCCCn1ncc2ccccc21` [compound 9, 1‐pentyl‐1H‐Indazole], with 540 ± 30 µM.
Consider `COC(=O)C(NC(=O)c1cn(CCCCCF)c2ccccc12)C(C)(C)C` (stereo not shown) [compound 2, methyl‐2‐[[1‐(5‐fluoropentyl)indole‐3‐carbonyl]amino]‐3,3‐dimethyl‐butanoate], for which, at MAO-B [2], the “MAO-B / IC50” value worked out at 690 ± 420 µM. For the same molecule, on MAO-A [3], the IC50 came out at 77.1 ± 1.09 µM.
`CCCCCn1ccc2ccccc21` [compound 8, 1‐pentyl‐1H‐Indole] registered an IC50 at MAO-B [1] of 630 ± 30 µM.
On the same count and under the same terms, then `FCCCCCn1ccc2ccccc21` [compound 6, 1‐(5‐fluoropentyl)‐1H‐Indole], with 650 ± 90 µM.
In the case of `NCCC(=O)c1ccccc1N` [compound 12, kynuramine], the Km at MAO-A [4] worked out at 140 ± 30 µM.
In turn, `FCCCCCn1ncc2ccccc21` [compound 7, 1‐(5‐fluoropentyl)‐1H‐Indazole] displayed an IC50 against MAO-B [1] of 620 ± 20 µM.
As for “N‐[[1‐(5‐fluoropentyl)‐1H‐indazol‐3‐yl]carbonyl]‐3‐methyl‐D‐valine methyl ester [compound 1]”, the IC50 on MAO-B [1] (1.5 mM benzylamine, 30 μM MAO-B [sic], 50 mM HEPES pH 7.5, 0.5% Triton X-100, 25 °C, IC50 relative to fitted Imax (Hill-type fit)) turned out to be 420 ± 190 µM; against MAO-A [3] (1 mM kynuramine, 20 μM MAO-A as printed, 50 mM HEPES pH 7.5, 0.5% Triton X-100, 25 °C, IC50 relative to fitted Imax (Hill-type fit)) it was 87.8 ± 4.38 µM.
